# Results: PMC7529893, “Structural basis for substrate recognition and chemical inhibition of oncogenic MAGE ubiquitin ligases” (Nature Communications, 2020)
# Target: T1, MAGE-A11:PCF11 interaction (GST-MAGE-A11 and FAM-PCF11_4) (Homo sapiens, UniProt P43364)
# T1 construct: GST-MAGE-A11 MHD (human MAGE-A11 MHD amino acid 218-429); made in house; host or cells: E. coli BL21(DE3)
# T1 sequence (P43364 218-429): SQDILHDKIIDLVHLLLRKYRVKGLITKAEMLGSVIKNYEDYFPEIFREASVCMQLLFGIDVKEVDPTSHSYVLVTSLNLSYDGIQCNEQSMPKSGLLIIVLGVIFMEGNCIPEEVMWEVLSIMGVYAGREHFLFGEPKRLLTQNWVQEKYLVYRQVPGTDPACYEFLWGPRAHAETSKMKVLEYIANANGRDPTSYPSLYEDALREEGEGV
# Test: TR-FRET primary / single point screen at 15 µM
# Format: binding
# Details: single point TR-FRET screening of 797 quinoline compounds against MAGE-A11:PCF11
# How it was run: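 TR-FRET 520/490 nm emission ratio was read after 90 min at room temperature. Wells held 5 nM GST-MAGE-A11, 5 nM Tb-anti-GST, 200 nM FAM-PCF11_4 and 15 µM compound in Tris pH 7.5 buffer with MgCl2, BSA and DTT. %Inhibition was scaled to DMSO and minus-MAGE-A11 controls.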
row,Structure (SMILES),percent inhibition (TR-FRET)
1,Clc1ccc2c(NCCCCN(Cc3ccccc3)Cc3cccs3)ccnc2c1 [SJ000312686],25.0481
2,Clc1ccc2c(NCCCCN(Cc3ccccc3)Cc3ccsc3)ccnc2c1 [SJ000312689],16.2962
3,Clc1ccc2c(NCCCCN(Cc3ccccc3)Cc3ccccn3)ccnc2c1 [SJ000312690],9.5313
4,Clc1ccc2c(NCCCCN(Cc3ccccc3)Cc3ccc[nH]3)ccnc2c1 [SJ000312692],28.2792
5,COc1cccc(CN(CCCCNc2ccnc3cc(Cl)ccc23)Cc2ccccc2)c1O [SJ000312694],7.676
6,COc1ccc(O)c(CN(CCCCNc2ccnc3cc(Cl)ccc23)Cc2ccccc2)c1 [SJ000312696],6.634
7,Oc1ccccc1CN(CCCCNc1ccnc2cc(Cl)ccc12)Cc1ccccc1 [SJ000312697],24.8344
8,COc1ccccc1N1CCN(c2c(S(=O)(=O)c3ccccc3)cnc3ccc(C)cc23)CC1 [SJ000315081],-19.5512
9,Cc1ccc2ncc(S(=O)(=O)c3ccccc3)c(N3CCN(c4ccccc4F)CC3)c2c1 [SJ000315092],-33.4837
10,O=S(=O)(c1ccccc1)c1cnc2ccc(F)cc2c1N1CCN(c2ccccc2F)CC1 [SJ000315166],-99.0552
11,O=S(=O)(c1ccccc1)c1cnc2ccc(Cl)cc2c1N1CCN(c2ccccc2F)CC1 [SJ000315176],-5.441
12,COc1ccc2ncc(S(=O)(=O)c3ccccc3)c(N3CCN(c4ccccc4F)CC3)c2c1 [SJ000315263],-252.464
13,Clc1ccc2c(NC3CCN(CC4CC4)CC3)ccnc2c1 [SJ000357481],3.973
14,COc1ccc(F)cc1CN1CCC(Nc2ccnc3cc(Cl)ccc23)CC1 [SJ000357493],6.1527
15,COc1ccc(F)cc1CN(CCCCNc1ccnc2cc(Cl)ccc12)Cc1ccccc1 [SJ000357496],20.7772
16,COc1cccc(F)c1CN1CCC(Nc2ccnc3cc(Cl)ccc23)CC1 [SJ000357498],10.503
17,COc1cccc(F)c1CN(CCCCNc1ccnc2cc(Cl)ccc12)Cc1ccccc1 [SJ000357501],5.094
18,Clc1ccc2c(NC3CCN(Cc4ccc(Br)o4)CC3)ccnc2c1 [SJ000357512],-4.381
19,Clc1ccc2c(NC3CCN(Cc4ccccc4)CC3)ccnc2c1 [SJ000357524],6.554
20,COc1cccc(CN2CCC(Nc3ccnc4cc(Cl)ccc34)CC2)c1O [SJ000357525],9.995
21,COc1ccc(O)c(CN2CCC(Nc3ccnc4cc(Cl)ccc34)CC2)c1 [SJ000357527],7.779
22,Oc1ccccc1CN1CCC(Nc2ccnc3cc(Cl)ccc23)CC1 [SJ000357529],22.1466
23,Clc1ccc2c(NCCCCN(CCOCc3ccccc3)Cc3ccccc3)ccnc2c1 [SJ000357543],-15.9162

# More lines, now with the values ahead:
row,percent inhibition (TR-FRET),Structure (SMILES)
1,12.0487,Clc1ccc2c(NCCCCN(Cc3ccccc3)Cc3ccco3)ccnc2c1 [SJ000312681]
2,2.013,Cc1ccc(CN(CCCCNc2ccnc3cc(Cl)ccc23)Cc2ccccc2)o1 [SJ000312682]
3,14.9636,Clc1ccc2c(NCCCCN(Cc3ccccc3)Cc3ccc(Br)o3)ccnc2c1 [SJ000312684]
4,14.8973,Clc1ccc2c(NCCCCN(Cc3ccccc3)Cc3ccoc3)ccnc2c1 [SJ000312685]
5,20.7072,Cc1ccc(CN(CCCCNc2ccnc3cc(Cl)ccc23)Cc2ccccc2)s1 [SJ000312687]
6,22.0375,Clc1ccc2c(NCCCCN(Cc3ccccc3)Cc3ccc(Br)s3)ccnc2c1 [SJ000312688]
7,2.503,CCCCN(CCCC)CC(=O)Nc1c2c(nc3ccccc13)N(C)CC2 [SJ000331523]
8,11.7837,CCN(CC)CC(=O)Nc1c2c(nc3ccccc13)N(C)CC2 [SJ000331537]
9,17.0397,CN(C)CC(=O)Nc1c2c(nc3ccccc13)N(C)CC2 [SJ000332030]
10,25.4682,CC(C)CN(CCCCNc1ccnc2cc(Cl)ccc12)Cc1ccccc1 [SJ000357470]
11,18.3422,Clc1ccc2c(NCCCCN(Cc3ccccc3)CC3CC3)ccnc2c1 [SJ000357485]
12,30.6494,Oc1c(F)cc(F)cc1CN(CCCCNc1ccnc2cc(Cl)ccc12)Cc1ccccc1 [SJ000357506]
13,34.5391,CC(C)(C)CCN(CCCCNc1ccnc2cc(Cl)ccc12)Cc1ccccc1 [SJ000357537]
14,27.6387,CCCCN(CCCCNc1ccnc2cc(Cl)ccc12)Cc1ccccc1 [SJ000357538]

# Same assay, conditions: single point TR-FRET screening of quinoline compounds against MAGE-A11:PCF11; 15 µM
row,Structure (SMILES),percent inhibition (TR-FRET)
1,Cc1ccc(CNCCCNc2ccnc3cc(Cl)ccc23)o1 [SJ000311326],10.2048
2,Clc1ccc2c(NCCCN(Cc3ccccc3)Cc3ccco3)ccnc2c1 [SJ000312668],0.5217
3,Clc1ccc2c(NCCCN(Cc3ccccc3)Cc3ccc(Br)o3)ccnc2c1 [SJ000312671],-1.797
4,Clc1ccc2c(NCCCN(Cc3ccccc3)Cc3cccs3)ccnc2c1 [SJ000312672],4.744
5,Clc1ccc2c(NCCCN(Cc3ccccc3)Cc3ccsc3)ccnc2c1 [SJ000312675],9.598
6,Clc1ccc2c(NCCCN(Cc3ccccc3)Cc3nccs3)ccnc2c1 [SJ000312676],-4.148
7,Clc1ccc2c(NCCCN(Cc3ccccc3)Cc3ccccn3)ccnc2c1 [SJ000312678],-3.851
8,Clc1ccc2c(NCCCN(Cc3ccccc3)Cc3ccncc3)ccnc2c1 [SJ000312679],-5.573
9,Cc1ccsc1CN(CCCNc1ccnc2cc(Cl)ccc12)Cc1ccccc1 [SJ000357440],10.905
10,Clc1ccc2c(NCCCN(Cc3ccccc3)Cc3ccc(Br)s3)ccnc2c1 [SJ000357461],27.4987
11,COc1ccc(O)c(CN(CCCNc2ccnc3cc(Cl)ccc23)Cc2ccccc2)c1 [SJ000357463],14.1686
12,COc1cccc(CN(CCCNc2ccnc3cc(Cl)ccc23)Cc2ccccc2)c1O [SJ000357465],13.1749
13,COc1ccc(F)cc1CN(CCCNc1ccnc2cc(Cl)ccc12)Cc1ccccc1 [SJ000357495],6.683
14,COc1cccc(F)c1CN(CCCNc1ccnc2cc(Cl)ccc12)Cc1ccccc1 [SJ000357500],-2.857
15,Oc1c(F)cc(F)cc1CN(CCCNc1ccnc2cc(Cl)ccc12)Cc1ccccc1 [SJ000357504],27.6387

# The next lines start with the values.
row,percent inhibition (TR-FRET),Structure (SMILES)
1,2.84,Cc1ccc(CN(CCCNc2ccnc3cc(Cl)ccc23)Cc2ccccc2)o1 [SJ000312669]
2,4.629,Cc1ccc(CN(CCCNc2ccnc3cc(Cl)ccc23)Cc2ccccc2)s1 [SJ000312673]
3,19.1371,CCCN(CCCNc1ccnc2cc(Cl)ccc12)Cc1ccccc1 [SJ000357431]
4,16.5062,CCCN(CCCNc1ccnc2cc(Cl)ccc12)Cc1ccc(C)s1 [SJ000357433]
5,20.147,CCCN(CCCNc1ccnc2cc(Cl)ccc12)Cc1ccc(C)o1 [SJ000357437]
6,19.7269,CCCN(CCCNc1ccnc2cc(Cl)ccc12)Cc1sccc1C [SJ000357439]
7,6.2139,CCCN(CCCNc1ccnc2cc(Cl)ccc12)Cc1ccoc1 [SJ000357442]
8,10.3448,CCCN(CCCNc1ccnc2cc(Cl)ccc12)Cc1ccc[nH]1 [SJ000357445]
9,7.809,CCCN(CCCNc1ccnc2cc(Cl)ccc12)Cc1cccnc1 [SJ000357446]
10,9.295,CCCN(CCCNc1ccnc2cc(Cl)ccc12)Cc1ccncc1 [SJ000357449]
11,11.9552,CCCN(CCCNc1ccnc2cc(Cl)ccc12)Cc1nccs1 [SJ000357454]
12,3.483,CCCN(CCCNc1ccnc2cc(Cl)ccc12)Cc1ccco1 [SJ000357458]
13,18.7467,CC(C)CN(CCCNc1ccnc2cc(Cl)ccc12)Cc1ccccc1 [SJ000357468]
14,21.0583,Clc1ccc2c(NCCCN(Cc3ccccc3)CC3CC3)ccnc2c1 [SJ000357483]
15,17.0835,CCCN(CCCNc1ccnc2cc(Cl)ccc12)Cc1cc(F)ccc1OC [SJ000357494]
16,19.4021,CCCN(CCCNc1ccnc2cc(Cl)ccc12)Cc1c(F)cccc1OC [SJ000357499]
17,11.4525,CCCN(CCCNc1ccnc2cc(Cl)ccc12)CC(C)C [SJ000357568]
18,12.1149,CCCN(CCCNc1ccnc2cc(Cl)ccc12)CCC(C)(C)C [SJ000357570]
19,12.7774,CCCCN(CCC)CCCNc1ccnc2cc(Cl)ccc12 [SJ000357571]
20,24.9781,CCCN(CCCNc1ccnc2cc(Cl)ccc12)CCC(C)c1ccccc1 (centres unmarked) [SJ000357573]
21,4.8836,CCCN(CCCNc1ccnc2cc(Cl)ccc12)CCc1ccccc1 [SJ000357574]
22,7.824,CCCN(CCCNc1ccnc2cc(Cl)ccc12)CCCSC [SJ000357576]
